Test results from patent US20260265194A1, “COMPOUNDS FOR THE TREATMENT OF HIV” (THE TRUSTEES OF THE UNIVERSITY OF PENNSYLVANIA, priority 2022, published 2026).

Experiments:
HIVJR-FL-infected cells = assay: ADCC killing of HIVJR-FL-infected cells; format: cell-based, HIV-1
Text: (§1) The ability of the compounds of the disclosure to enhance Ab recognition of Env on the surface of infected cells and mediate ADCC was examined. Via HIV+ plasma binding, it was observed that CJF-III-192 was able to enhance Ab recognition to a greater degree than BNM-III-170 (7-fold vs 2-fold enhancement vs DMSO) for JR-FL infected primary T-cells. Additionally, when comparing the % ADCC activity of these two compounds, it was observed that CJF-III-192 could achieve up to 8% killing of HIVJR-FL-infected cells, while BNM-III-170 could only attain levels up to 5%. This effect on ADCC activity was more pronounced with HIVCH58TF-infected cells; 18% killing for CJF-III-192 vs. 8% killing with […].

HIV-1 JR-FL = assay: Single-round pseudovirus infection inhibition (luciferase), JR-FL Env; format: cell-based; conditions: Cf2Th target cells expressing CD4 and CCR5
Procedure: (§2) Cell lines. 293T cells were grown in Dulbecco's modified Eagle's medium (DMEM) (Life Technologies, Wisent Inc.) supplemented with 10% fetal bovine serum (FBS) (Life Technologies, VWR) and 100 µg/ml of penicillin-streptomycin (Life Technologies, Wisent Inc.). Cf2Th cells stably expressing the human CD4 and CCR5 coreceptors for HIV-1 were grown in the same medium supplemented with 0.4 mg/ml of G418 and 0.2 mg/ml of hygromycin.
(§3) CD4-mimetic compound. The compounds of the disclosure (CD4mc) were dissolved in dimethyl sulfoxide (DMSO) at a stock concentration of 10 mM and diluted to the appropriate concentration for antiviral assays.
(§4) Production of recombinant pseudoviruses expressing luciferase. 293T cells were transfected with pSVIIIenv plasmids expressing Env from HIV-1 strain variants, the pCMVΔP1Δenv HIV-1 Gag-Pol packaging construct and the firefly luciferase-expressing HIV-1 vector at a 1:1:3 μg DNA ratio using effectene transfection reagent (Qiagen). […]
(§5) Virus infectivity and inhibition. […] Forty-eight h later, the target cells were lysed and the luciferase activity was measured.
(§6) For inhibition assays, the compounds to be tested were incubated at various concentrations with recombinant pseudoviruses for 1 h at 37° C. […] Forty-eight hours later, the target cells were lysed and the luciferase activity was measured. […]

HIV-1 AD8 = assay: Single-round pseudovirus infection inhibition (luciferase), AD8 Env; format: cell-based; conditions: Cf2Th target cells expressing CD4 and CCR5
Procedure: as §2, §3, §4, §5, §6

[1] = tested on: Env on JR-FL infected primary T-cells; assay: HIV+ plasma binding (Ab recognition of Env on infected cells); format: cell-based, HIV-1
Text: as §1

[2] = tested on: mutant HIV-1AD8 batches 130_3 and 130_C; assay: Entry inhibition of CD4mc resistant AD8 variants; format: cell-based; conditions: up to 300 μM
Procedure: CD4mc resistant variants of Clade B virus AD8 were also selected by incubating infected host cells with increasing concentrations of BNM-III-170. […] These resistant strains of AD8 were sequenced to find specific mutations in the gp120 monomer that conferred the greatest resistance to BNM-III-170. Of these mutations examined, E64G, S375N, and I424T conferred the greatest resistance to treatment with compounds of the disclosure.
Each of the mutations individually were able to increase resistance to BNM-III-170, but were most resistant when combined as in HIV-1AD8 isolates 130_3 and 130_C. […] This was true with the individual mutations discussed above, as well as the original resistant mutants 130_3 and 130_C.

BG505, cladeA HIV-1 = assay: Single-round pseudovirus infection inhibition (luciferase), BG505 Env; format: cell-based; conditions: Cf2Th target cells expressing CD4 and CCR5
Procedure: as §2, §3, §4, §5, §6

HIVCH58TF-infected cells = assay: ADCC killing of HIVCH58TF-infected cells; format: cell-based, HIV-1
Text: as §1

SMILES: CNCc1ccc2c(c1)C[C@H](CN=C(N)N)[C@H]2NC(=O)C(=O)Nc1ccc(Cl)c(F)c1.O=C(O)C(F)(F)F.O=C(O)C(F)(F)F [BNM-III-170]
- % ADCC activity (killing) (HIVJR-FL-infected cells): up to 5%
- IC50 (HIV-1 JR-FL): 12.2 µM
- IC50 (HIV-1 AD8): 1700 nM
- enhancement of Ab recognition vs DMSO [1]: 2 fold
- entry inhibition of resistant mutants [2]: completely resistant
- IC50 (BG505, cladeA HIV-1): > 300 µM
- % ADCC activity (killing) (HIVCH58TF-infected cells): 8%
